This test has as its system white laboratory rats. The experiment in a line: Blood glucose level in rats before and three hours after administration of oral insulin preparation. The test is classed as in vivo. The conditions noted are these: rat; preparation containing 5 units of bovine insulin; three hours after administration. Here is the method:
Two white laboratory rats, weighing 177 and 197 grams, respectively, were used in this experiment. One rat was administered a preparation of oral insulin according to the present invention containing 5 units of insulin; a formulation of the oral insulin according to the present invention containing 10 units of bovine insulin was administered to the second rat. Blood samples were drawn from each animal before and three hours after administration of the oral insulin preparation. The results given below are expressed as the percentage of the pre-experiment blood glucose level.
One white laboratory rat weighing 181 grams received a non-encapsulated preparation containing 5 units of free bovine insulin. This animal served as the control. After three hours, blood glucose level was 98.7% of the pre-experiment blood glucose level.

This note sets out measurements from patent US4849405A, “Oral insulin and a method of making the same” (priority 1986, dated 1989).

As to “free bovine insulin: non-encapsulated preparation containing 5 units of free bovine insulin; served as the control”, the “blood glucose level as percentage of the pre-experiment blood glucose level” value is 98.7%.
